According to publication PMC8795197, “Safety and activity of WX-0593 (Iruplinalkib) in patients with ALK- or ROS1-rearranged advanced non-small cell lung cancer: a phase 1 dose-escalation and dose-expansion trial” (Signal Transduction and Targeted Therapy, 2022):
“Also recorded” adds a separate entry of the source. Where two headings read alike, the source gives them in different places.

Tests used:
M2 = M2 (Homo sapiens, UniProt P08172); assay: GPCR antagonist screening assay; type: cell-based
M2, sequence (P08172 whole entry): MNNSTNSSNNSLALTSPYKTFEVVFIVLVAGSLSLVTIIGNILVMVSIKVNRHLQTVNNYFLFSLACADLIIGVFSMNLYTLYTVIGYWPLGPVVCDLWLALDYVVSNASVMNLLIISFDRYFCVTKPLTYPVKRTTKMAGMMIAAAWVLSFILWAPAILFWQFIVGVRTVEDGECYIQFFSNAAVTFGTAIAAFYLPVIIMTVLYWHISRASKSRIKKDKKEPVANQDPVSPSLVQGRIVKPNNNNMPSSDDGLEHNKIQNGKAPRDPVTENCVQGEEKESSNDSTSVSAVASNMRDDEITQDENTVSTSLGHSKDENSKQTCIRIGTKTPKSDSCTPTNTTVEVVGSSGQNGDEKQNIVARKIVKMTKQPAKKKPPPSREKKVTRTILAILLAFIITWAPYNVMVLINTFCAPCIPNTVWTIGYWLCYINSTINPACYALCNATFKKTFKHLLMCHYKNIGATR

[1] = General pharmacology: cardiovascular system; type: in vivo, monkeys
Protocol: […]. Therefore, WX-0593 has a low risk of cardiotoxicity. There were no effects on the CNS and respiratory system in rats at doses of 3, 10, and 30 mg/kg. However, WX-0593 10 and 30 mg/kg may result in benign respiratory rate and decreases in minute ventilation in female rats. There were no effects on the cardiovascular system, blood pressure, ECG parameters or waveforms in monkeys at doses of 5, 10, and 25 mg/kg; 10 and 25 mg/kg may result in mild decreases in heart rate (within the normal range) and PR prolongation and QTc shortening associated with bradycardia within the normal range (no statistical difference when compared to the control arm). No cardiovascular system adverse reactions related to the test product were found. The human equivalent dose (using 60 kg) is 3636 mg/person in CNS, 3636 mg/person in male respiratory system and 363.6 mg/person in female respiratory system, and 607 mg/person in cardiovascular system.

EGFR L858R/T790M = EGFR L858R/T790M (Homo sapiens, UniProt P00533, L858R/T790M); assay: In vitro enzyme inhibition study; type: biochemical; conditions: difference in inhibitory activity within 3 times
EGFR L858R/T790M, sequence (P00533 25-1210 T790M/L858R): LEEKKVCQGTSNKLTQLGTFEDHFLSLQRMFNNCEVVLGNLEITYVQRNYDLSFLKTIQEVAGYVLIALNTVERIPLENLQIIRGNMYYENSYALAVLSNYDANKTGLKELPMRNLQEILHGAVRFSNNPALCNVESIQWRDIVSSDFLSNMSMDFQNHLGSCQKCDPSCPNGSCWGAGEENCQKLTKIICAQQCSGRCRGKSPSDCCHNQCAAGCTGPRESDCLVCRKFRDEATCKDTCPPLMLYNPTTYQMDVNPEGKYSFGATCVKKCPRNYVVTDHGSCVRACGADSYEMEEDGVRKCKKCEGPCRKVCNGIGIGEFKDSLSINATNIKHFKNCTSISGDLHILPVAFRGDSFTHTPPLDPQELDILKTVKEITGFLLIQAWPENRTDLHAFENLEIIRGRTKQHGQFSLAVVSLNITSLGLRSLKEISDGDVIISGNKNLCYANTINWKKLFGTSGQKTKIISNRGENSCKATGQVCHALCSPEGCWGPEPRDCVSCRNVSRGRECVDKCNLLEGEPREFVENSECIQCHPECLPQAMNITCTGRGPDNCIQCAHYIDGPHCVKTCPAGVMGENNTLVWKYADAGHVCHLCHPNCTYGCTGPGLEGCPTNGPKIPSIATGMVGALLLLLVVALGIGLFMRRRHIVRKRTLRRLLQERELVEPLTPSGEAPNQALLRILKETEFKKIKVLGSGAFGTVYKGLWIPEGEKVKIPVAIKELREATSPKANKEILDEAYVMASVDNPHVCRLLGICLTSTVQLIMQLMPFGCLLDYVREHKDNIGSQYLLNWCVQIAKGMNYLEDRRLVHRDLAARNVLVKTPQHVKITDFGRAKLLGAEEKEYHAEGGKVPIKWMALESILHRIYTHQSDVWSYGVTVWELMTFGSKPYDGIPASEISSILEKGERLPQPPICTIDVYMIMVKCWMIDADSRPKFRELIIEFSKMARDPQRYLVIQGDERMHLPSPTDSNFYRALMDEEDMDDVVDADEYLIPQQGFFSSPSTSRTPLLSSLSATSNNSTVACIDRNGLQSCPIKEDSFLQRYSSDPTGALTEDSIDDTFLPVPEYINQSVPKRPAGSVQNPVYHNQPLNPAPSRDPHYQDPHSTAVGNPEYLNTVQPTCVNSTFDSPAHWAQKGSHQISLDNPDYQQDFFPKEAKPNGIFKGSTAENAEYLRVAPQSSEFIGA
Source text: The inhibitory activities were low for other serine, threonine, and tyrosine […], except for the EGFR wild type, within the tested concentration range.

Karpas299 (NPM-ALK) = assay: Cell proliferation inhibition assay; type: cell-based
[2] = Phase 1 dose-escalation phase: plasma pharmacokinetics; type: in vivo, human; conditions: for Tmax / AUC(0-t) / AUC(0-inf) / Cmax / MRT inf / half-life: human, plasma, oral; for Tmax / AUC(0-t) / AUC(0-inf) / Cmax / MRT inf / half-life / Cssmax / Cssmin / Racc_AUC / Racc_Cmax: mean (SD); for MRT inf: read-out: MRT0-∞; for half-life: read-out: T1/2z (converted)
Protocol: Three patients were assigned to each dose level. In the dosing cohort of 30 mg, treatment included a single WX-0593 dose, followed by 7-day PK evaluation period, and subsequent daily oral dosing for continuous 21 days. In other dosing cohorts, WX-0593 was administered orally as a single dose in the 4-day PK run-in period, followed by dosing once per day in continuous 21-day cycles. The DLT observation period was the first cycle of WX-0593 treatment (the single-dose period and 21 days of multiple-dose period).
In the dose-escalation phase, blood samples were collected at protocol-specified time points after single and multiple dose administration of WX-0593 in all dosing cohorts for assessment of PK parameters.
Safety analysis was performed in the SS, which was comprised of all patients treated with one dose of WX-0593 and with safety data recorded. Efficacy analysis was performed in the FAS, which was defined as all patients treated with at least one dose of WX-0593. The PK analysis set included all patients treated with at least one dose of WX-0593 and with at least one evaluable PK sample.
Descriptive statistics were carried out to summarize patients’ baseline characteristics and safety. […] All time-to-event data (PFS, TTP, DOR, and OS) and their corresponding 95% CIs were estimated by Kaplan–Meier methods. PK parameter analyses were done with Phoenix WinNonlin version 8.0. All other statistical analyses were conducted using SAS version 9.4.
Blood sampling time points for single dose: Blood samples are collected before dosing and 0.5 h, 1 h, 2 h, 3 h, 4 h, 5 h, 6 h, 8 h, 12 h, 24 h, 32 h, 48 h, and 72 h after dosing (after adjustment according to the pharmacokinetic parameters of patients in the first dose arm).
Blood sampling time points for repeated dosing: Repeated dosing starts 4 days after single dose administration. Blood samples are collected before repeated dosing on Days 7, 14, and 21 before repeated dosing, and within 24h after dosing (0.5 h, 1 h, 2 h, 3 h, 4 h, 5 h, 6 h, 8 h, 12 h, 24 h) for measurement of blood pharmacokinetic parameters.
The plasma concentration of WX-0593 will be determined using LC-MS.

[3] = tested on: 27 non-target kinases (MAP4K4 ... INSR, EGFR wild type); assay: Inhibitory study of 27 non-target kinases; type: biochemical; conditions: except for EGFR wild type
[4] = multiple dosing 120 mg (n = 11)
[5] = multiple dosing 180 mg (n = 13)
[6] = multiple dosing 240 mg (n = 12)

COc1cc(N2CCC3(CCN(C)CC3)CC2)ccc1Nc1ncc(Cl)c(Nc2ccccc2P(C)(C)=O)n1 [WX-0593]
IC50 (M2): > 10 µM
effects on cardiovascular system, blood pressure, ECG parameters or waveforms ([1]; 5, 10 and 25 mg/kg): no effects
human equivalent dose, cardiovascular system ([1]; using 60 kg): 607 mg/person
inhibitory activity compared with brigatinib (EGFR L858R/T790M): comparable with the activity of brigatinib; also recorded: comparable to brigatinib
growth inhibition (Karpas299 (NPM-ALK)): significantly inhibits the growth
free Cavg,ss ([2]; 180 mg, once daily): 127 nM
Tmax ([2]; 30 mg, multiple dosing 30 mg (n = 3)): 4.33 h
AUC(0-t) ([2]; 30 mg, multiple dosing 30 mg (n = 3), read-out: AUC0–24): 1150 ng·h/mL
Tmax ([2]; 30 mg, single dose 30 mg (n = 3)): 2.32 h
AUC(0-t) ([2]; 30 mg, single dose 30 mg (n = 3), read-out: AUC0-t): 1310 ng·h/mL
Tmax ([2]; 60 mg, multiple dosing 60 mg (n = 3)): 4.01 h
AUC(0-t) ([2]; 60 mg, multiple dosing 60 mg (n = 3), read-out: AUC0–24): 4960 ng·h/mL
Tmax ([2]; 60 mg, single dose 60 mg (n = 3)): 1.33 h
AUC(0-t) ([2]; 60 mg, single dose 60 mg (n = 3), read-out: AUC0-t): 3650 ng·h/mL
Tmax ([2]; 90 mg, multiple dosing 90 mg (n = 8)): 2.87 h
AUC(0-t) ([2]; 90 mg, multiple dosing 90 mg (n = 8), read-out: AUC0–24): 4390 ng·h/mL
Tmax ([2]; 90 mg, single dose 90 mg (n = 8)): 1.69 h
AUC(0-t) ([2]; 90 mg, single dose 90 mg (n = 8), read-out: AUC0-t): 5430 ng·h/mL
Tmax ([2]; 120 mg, multiple dosing 120 mg (n = 11)): 2.79 h
AUC(0-t) ([2]; 120 mg, multiple dosing 120 mg (n = 11), read-out: AUC0–24): 6120 ng·h/mL
Tmax ([2]; 120 mg, single dose 120 mg (n = 11)): 1.81 h
AUC(0-t) ([2]; 120 mg, single dose 120 mg (n = 11), read-out: AUC0-t): 7780 ng·h/mL
Tmax ([2]; 180 mg, multiple dosing 180 mg (n = 13)): 2.79 h
AUC(0-t) ([2]; 180 mg, multiple dosing 180 mg (n = 13), read-out: AUC0–24): 7210 ng·h/mL
Tmax ([2]; 180 mg, single dose 180 mg (n = 12)): 2.29 h
AUC(0-t) ([2]; 180 mg, single dose 180 mg (n = 12), read-out: AUC0-t): 6620 ng·h/mL
Tmax ([2]; 240 mg, multiple dosing 240 mg (n = 12)): 3.27 h
AUC(0-t) ([2]; 240 mg, multiple dosing 240 mg (n = 12), read-out: AUC0–24): 12700 ng·h/mL
Tmax ([2]; 240 mg, single dose 240 mg (n = 10)): 2.5 h
AUC(0-t) ([2]; 240 mg, single dose 240 mg (n = 10), read-out: AUC0-t): 15500 ng·h/mL
Tmax ([2]; 300 mg, multiple dosing 300 mg (n = 2)): 1.24 h
AUC(0-t) ([2]; 300 mg, multiple dosing 300 mg (n = 2), read-out: AUC0–24): 23400 ng·h/mL
Tmax ([2]; 300 mg, single dose 300 mg (n = 3)): 2.71 h
AUC(0-t) ([2]; 300 mg, single dose 300 mg (n = 3), read-out: AUC0-t): 14900 ng·h/mL
AUC(0-inf) ([2]; single dose 30 mg (n = 3)): 1710 ng·h/mL
Cmax ([2]; single dose 30 mg (n = 3)): 105 ng/mL
MRT inf ([2]; single dose 30 mg (n = 3)): 20.7 h
half-life ([2]; single dose 30 mg (n = 3)): 928 min
AUC(0-inf) ([2]; single dose 60 mg (n = 3)): 4060 ng·h/mL
Cmax ([2]; single dose 60 mg (n = 3)): 305 ng/mL
MRT inf ([2]; single dose 60 mg (n = 3)): 28.3 h
half-life ([2]; single dose 60 mg (n = 3)): 1540 min
AUC(0-inf) ([2]; single dose 90 mg (n = 8)): 6210 ng·h/mL
Cmax ([2]; single dose 90 mg (n = 8)): 474 ng/mL
MRT inf ([2]; single dose 90 mg (n = 8)): 24 h
half-life ([2]; single dose 90 mg (n = 8)): 1310 min
AUC(0-inf) ([2]; single dose 120 mg (n = 11)): 8120 ng·h/mL
Cmax ([2]; single dose 120 mg (n = 11)): 571 ng/mL
MRT inf ([2]; single dose 120 mg (n = 11)): 25.6 h
half-life ([2]; single dose 120 mg (n = 11)): 1340 min
AUC(0-inf) ([2]; single dose 180 mg (n = 12)): 7320 ng·h/mL
Cmax ([2]; single dose 180 mg (n = 12)): 401 ng/mL
MRT inf ([2]; single dose 180 mg (n = 12)): 27.9 h
half-life ([2]; single dose 180 mg (n = 12)): 1430 min
AUC(0-inf) ([2]; single dose 240 mg (n = 10)): 16900 ng·h/mL
Cmax ([2]; single dose 240 mg (n = 10)): 1000 ng/mL
MRT inf ([2]; single dose 240 mg (n = 10)): 25 h
half-life ([2]; single dose 240 mg (n = 10)): 1370 min
AUC(0-inf) ([2]; single dose 300 mg (n = 3)): 17100 ng·h/mL
Cmax ([2]; single dose 300 mg (n = 3)): 905 ng/mL
MRT inf ([2]; single dose 300 mg (n = 3)): 32.4 h
half-life ([2]; single dose 300 mg (n = 3)): 1650 min
Cssmax ([2]; multiple dosing 30 mg (n = 3)): 95.13 (54.02) ng/mL
Cssmin ([2]; multiple dosing 30 mg (n = 3)): 25.00 (8.04) ng/mL
Racc_AUC ([2]; multiple dosing 30 mg (n = 3)): 116.256 (32.91) %
Racc_Cmax ([2]; multiple dosing 30 mg (n = 3)): 89.141 (35.00) %
Cssmax ([2]; multiple dosing 60 mg (n = 3)): 419.00 (128.24) ng/mL
Cssmin ([2]; multiple dosing 60 mg (n = 3)): 117.87 (59.10) ng/mL
Racc_AUC ([2]; multiple dosing 60 mg (n = 3)): 203.993 (32.03) %
Racc_Cmax ([2]; multiple dosing 60 mg (n = 3)): 150.689 (39.79) %
Cssmax ([2]; multiple dosing 90 mg (n = 8)): 324.38 (109.58) ng/mL
Cssmin ([2]; multiple dosing 90 mg (n = 8)): 103.65 (29.27) ng/mL
Racc_AUC ([2]; multiple dosing 90 mg (n = 8)): 149.978 (88.53) %
Racc_Cmax ([2]; multiple dosing 90 mg (n = 8)): 117.082 (97.12) %
Cssmax [2, 4]: 479.20 (151.70) ng/mL
Cssmin [2, 4]: 139.24 (34.22) ng/mL
Racc_AUC [2, 4]: 130.809 (36.42) %
Racc_Cmax [2, 4]: 111.519 (44.39) %
Cssmax [2, 5]: 529.38 (203.22) ng/mL
Cssmin [2, 5]: 164.10 (77.76) ng/mL
Racc_AUC [2, 5]: 174.265 (35.49) %
Racc_Cmax [2, 5]: 138.238 (26.54) %
Cssmax [2, 6]: 960.50 (234.47) ng/mL
Cssmin [2, 6]: 236.00 (56.80) ng/mL
Racc_AUC [2, 6]: 160.210 (77.95) %
Racc_Cmax [2, 6]: 127.749 (58.74) %
Cssmax ([2]; multiple dosing 300 mg (n = 2)): 1685.00 (657.61) ng/mL
Cssmin ([2]; multiple dosing 300 mg (n = 2)): 623.50 (402.34) ng/mL
Racc_AUC ([2]; multiple dosing 300 mg (n = 2)): 309.507 (151.00) %
Racc_Cmax ([2]; multiple dosing 300 mg (n = 2)): 223.005 (88.95) %
dose proportionality of exposure ([2]; once-daily 30 to 300 mg, AUC0–24): increased in an approximately dose-proportion manner
inhibitory activity against non-target kinases [3]: no significant inhibitory activity
